According to patent publication US8795979B2, “Hydrolase enzyme substrates and uses thereof” (General Atomics, priority 2011, dated 2014):

What was measured:
Format in all cases: biochemical
[1] = molecular target: T1, aryl alcohol dehydrogenase (AAD) (Pseudomonas putida, UniProt P39849); experiment: Kinetic constants of AAD; conditions: recombinant Pseudomonas putida AAD
T1 construct: made in house; host or cells: E. coli
T1 sequence (P39849 1-366): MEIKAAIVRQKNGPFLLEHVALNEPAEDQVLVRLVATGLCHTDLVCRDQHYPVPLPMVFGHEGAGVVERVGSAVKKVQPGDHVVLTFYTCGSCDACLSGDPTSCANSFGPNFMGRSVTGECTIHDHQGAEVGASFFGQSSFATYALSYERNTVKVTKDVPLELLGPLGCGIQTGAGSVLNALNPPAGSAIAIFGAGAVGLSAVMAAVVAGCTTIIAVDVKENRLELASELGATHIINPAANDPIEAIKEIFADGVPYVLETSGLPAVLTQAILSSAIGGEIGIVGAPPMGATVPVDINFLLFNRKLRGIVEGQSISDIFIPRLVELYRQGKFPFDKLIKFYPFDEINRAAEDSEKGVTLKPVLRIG
Text: AAO was purified from Pleurotus eryngii using the procedures described in Guillen, F. et al., “Substrate specificity and properties of aryl-alcohol oxidase from the ligninolytic fungus Pleurotus eryngii,” Eur. J. Biochem., 209:603-611 (1992). The purification steps include concentration, anion exchange chromatography and hydrophobic interaction chromatography. DNA construct for recombinant production of Pseudomonas putida AAD was made based on the DNA sequence disclosed in Shaw, J. P. et al., Kinetic studies on benzyl alcohol dehydrogenase encoded by TOL plasmid pWW0,” J. Biol. Chem., 268:10842-10850 (1993), and the recombinant Pseudomonas putida AAD was made by overexpression in E. coli. The cycling system was combined with chemiluminescent (lumino)-hydrogen peroxide-horseradish peroxidase) reaction to form a sensitive assay.
For AAD, KNADH=9.1±2 μM; Kp-Anisyl aldehyde=6.6±0.8 μM; and kcat=30/s.

beta-galactosidase = experiment: Hydrolysis by beta-galactosidase coupled with aryl alcohol oxidase, H2O2 detection; conditions: 10 mM substrate, 10 unit/ml beta-galactosidase and 20 unit/ml aryl alcohol oxidase, 37° C., 30 min
Text: (§1) The aryl alcohol dehydrogenase used in this example was recombinantly produced based on the description in Guillen and Evans, Appl. Environmental Microbiol., 60(8):2811-17 (1994) and Reiser et al., J. Biol. Chem., 269(45):28152-28159 (1994).

aryl alcohol oxidase = experiment: Incubation with aryl alcohol oxidase alone, H2O2 detection; conditions: no beta-galactosidase
Text: as §1

## NC(=O)C1=CN([C@@H]2O[C@H](COP(=O)(O)OP(=O)(O)OC[C@H]3O[C@@H](n4cnc5c(N)ncnc54)[C@H](O)[C@@H]3O)[C@@H](O)[C@H]2O)C=CC1 [NADH, reference compound]
[1]
  KNADH (AAD): 9.1 ± 2 µM

## COc1ccc(C=O)cc1 [p-Anisyl aldehyde]
[1]
  Kp-Anisyl aldehyde (AAD): 6.6 ± 0.8 µM
  kcat (AAD): 30 s⁻¹

## COc1ccc(CO[C@@H]2OC(CO)[C@H](O)[C@@H](O)C2O)cc1 (stereo partly drawn) [p-MOBG, p-Methoxybenzyl-β-D-Galactopyranoside]
beta-galactosidase
  generation of H2O2 (detected by peroxidase in the presence of 4-AA and TOOS at 560 nm): resulted in generation of H2O2
Aryl alcohol oxidase
  H2O2 detected on incubation with aryl alcohol oxidase alone: no H2O2 detected
